# Several values for one entry are separate records, joined by “and”; a condition that tells them apart may be missing. Identical values can stand only once.
# Target: Glycogen synthase kinase-3 alpha (Homo sapiens, UniProt P49840)
# Assay: TR-FRET Assay
# Procedure: (§1) The assay was performed in a white, 384 well, low volume, flat bottom plate (Grenier). […] The kinase activity was quenched with 2 μL of 250 mM EDTA. A 10 μL volume of 40 nM Strepavidin-d2, 2 nM Tb2+-pSer641 antibody in TR-FRET Detection Buffer (Invitrogen) was then added.
# Chain of Glycogen synthase kinase-3 alpha (P49840 whole entry): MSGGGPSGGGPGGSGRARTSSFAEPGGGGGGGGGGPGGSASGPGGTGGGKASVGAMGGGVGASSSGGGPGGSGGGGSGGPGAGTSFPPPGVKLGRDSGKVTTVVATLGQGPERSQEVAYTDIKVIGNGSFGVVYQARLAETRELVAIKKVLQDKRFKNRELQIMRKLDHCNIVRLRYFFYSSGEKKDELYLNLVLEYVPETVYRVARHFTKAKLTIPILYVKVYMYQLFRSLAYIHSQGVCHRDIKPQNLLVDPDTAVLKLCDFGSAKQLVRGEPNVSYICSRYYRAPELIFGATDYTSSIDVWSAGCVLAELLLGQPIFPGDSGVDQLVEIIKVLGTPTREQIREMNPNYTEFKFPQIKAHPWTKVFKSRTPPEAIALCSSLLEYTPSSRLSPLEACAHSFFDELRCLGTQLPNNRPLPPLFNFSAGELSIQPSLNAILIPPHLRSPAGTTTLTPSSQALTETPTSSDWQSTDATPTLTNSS
row,IC50,Compound
1,1000 to 5000 nM,"CC[C@@]1(c2cccc(-c3ccnc(C)c3)c2)C2=CN=NC2NC2=C1C(=O)CC(C)(C)C2 (some centres undefined) [US20250313563, Compound 865170]"
2,100 to 1000 nM,"CC[C@@]1(c2cccc(-c3ccncc3F)c2)C2=C(CC(C)(C)NC2=O)NC2N=NC(F)=C21 (some centres undefined) [US20250313563, Compound 949651]"
3,1000 to 5000 nM,"CC[C@]1(c2cccc(-c3ccnc(C)c3)c2)C2=CN=NC2NC2=C1C(=O)C[C@]1(CCOC1)C2 (some centres undefined) [US20250313563, Compound 947412]"
4,< 100 nM,"CC[C@@]1(c2cccc(-c3ccncc3C(F)(F)F)c2)C2=CN=NC2NC2=C1C(=O)CC(C)(C)C2 (some centres undefined) [US20250313563, Compound 943913]"
5,1000 to 5000 nM,"CC[C@]1(c2cccc(-c3cnn(C)c3C(F)(F)F)c2)C2=CN=NC2NC2=C1C(=O)NC(C)(C)C2 (some centres undefined) [US20250313563, Compound 948826]"
6,1000 to 5000 nM,"CC[C@]1(c2cccc(-c3c(F)cncc3F)c2)C2=CN=NC2NC2=C1C(=O)NC(C)(C)C2 (some centres undefined) [US20250313563, Compound 948514]"
7,100 to 1000 nM,"CC[C@]1(c2cccc(-c3ccnn3C)c2)C2=CN=NC2NC2=C1C(=O)NC1(CCC1)C2 (some centres undefined) [US20250313563, Compound 948522]"
8,100 to 1000 nM,"CC[C@]1(c2cccc(-c3ccncc3C)c2)C2=CN=NC2NC2=C1C(=O)NC1(CCCC1)C2 (some centres undefined) [US20250313563, Compound 948021]"
9,100 to 1000 nM,"CC[C@@]1(c2cccc(-c3ccnc(C)c3C)c2)C2=CN=NC2NC2=C1C(=O)CC(C)(C)C2 (some centres undefined) [US20250313563, Compound 943517]"
10,1000 to 5000 nM,"CC[C@@]1(c2cccc(N3CCc4ccncc43)c2)C2=CN=NC2NC2=C1C(=O)CC(C)(C)C2 (some centres undefined) [US20250313563, Compound 912004]"
11,100 to 1000 nM,"CC[C@]1(c2cccc(-c3ccnn3C)c2)C2=CN=NC2NC2=C1C(=O)N[C@]1(CCOC1)C2 (some centres undefined) [US20250313563, Compound 948014]"
12,1000 to 5000 nM,"CC[C@]1(c2cccc(-c3cnn(C)c3F)c2)C2=CN=NC2NC2=C1C(=O)NC(C)(C)C2 (some centres undefined) [US20250313563, Compound 949395]"
13,100 to 1000 nM,"CC[C@]1(c2cccc(-c3ccncc3C)c2)C2=CN=NC2NC2=C1C(=O)NC(C)(COC)C2 (some centres undefined) [US20250313563, Compound 948127]"
14,1000 to 5000 nM,"CC[C@]1(c2cccc(-c3ccnn3C)c2)C2=CN=NC2NC2=C1C(=O)N[C@@]1(CCCOC1)C2 (some centres undefined) [US20250313563, Compound 948366]"
15,< 100 nM and 100 to 1000 nM,"CC[C@@]1(c2cccc(-c3c(C)cnn3C)c2)C2=CN=NC2NC2=C1C(=O)NC(C)(C)C2 (some centres undefined) [US20250313563, Compound 952021]"
16,100 to 1000 nM,"CC[C@]1(c2cccc(-c3c(F)cncc3OC)c2)C2=CN=NC2NC2=C1C(=O)NC(C)(C)C2 (some centres undefined) [US20250313563, Compound 948145]"
17,100 to 1000 nM,"CC[C@@]1(c2cccc(-c3cnn4c3CCCC4)c2)C2=CN=NC2NC2=C1C(=O)CC(C)(C)C2 (some centres undefined) [US20250313563, Compound 945544]"
18,1000 to 5000 nM,"CC[C@]1(c2cccc(-c3cc(C)ncc3F)c2)C2=CN=NC2NC2=C1C(=O)CC(C)(C)C2 (some centres undefined) [US20250313563, Compound 927339]"
19,1000 to 5000 nM,"CC[C@]1(c2cccc(-c3ccnc(C)c3)c2)C2=CN=NC2NC2=C1C(=O)NC1(CCOCC1)C2 (some centres undefined) [US20250313563, Compound 948524]"

# More lines, now with the values behind:
row,Compound,IC50
1,"CC[C@@]1(c2cccc(C(F)(F)F)c2)C2=CN=NC2NC2=C1C(=O)NC[C@@H]2C (some centres undefined) [US20250313563, Compound 945384]",1000 to 5000 nM
2,"CC[C@]1(c2cccc(-c3cnn(C4CC4(F)F)c3)c2)C2=CN=NC2NC2=C1C(=O)NC(C)(C)C2 (some centres undefined) [US20250313563, Compound 949393]",1000 to 5000 nM
3,"CC[C@@]1(c2cccc(C(F)F)c2)C2=CN=NC2NC2=C1C(=O)CC(C)(C)C2 (some centres undefined) [US20250313563, Compound 826716]",100 to 1000 nM
4,"CC[C@@]1(c2cccc(-c3cn(C)nc3C)c2)C2=C(CC(C)(C)CC2=O)NC2N=NC(C)=C21 (some centres undefined) [US20250313563, Compound 913034]",1000 to 5000 nM
5,"Cn1ccc(S(=O)(=O)N2CCC3(CC2)C2=C(N=NC2)NC2=C3C(=O)NC(C)(C)C2)n1 [US20250313563, Compound 943961]",< 100 nM and 100 to 1000 nM
6,"CC[C@@]1(c2cccc(N(C)c3ccncc3)c2)C2=CN=NC2NC2=C1C(=O)CC(C)(C)C2 (some centres undefined) [US20250313563, Compound 874261]",100 to 1000 nM
7,"CCc1cccc(N(C)c2cccc([C@]3(CC)C4=CN=NC4NC4=C3C(=O)CC(C)(C)C4)c2)n1 (some centres undefined) [US20250313563, Compound 945726]",1000 to 5000 nM
8,"CC[C@@]1(c2cccc(S(=O)(=O)CC3CC3)c2)C2=CN=NC2NC2=C1C(=O)CC(C)(C)C2 (some centres undefined) [US20250313563, Compound 917151]",1000 to 5000 nM
9,"CC[C@@]1(c2cccc(-c3c(C)nn(C)c3C)c2)C2=CN=NC2NC2=C1C(=O)CC(C)(C)C2 (some centres undefined) [US20250313563, Compound 911991]",100 to 1000 nM
10,"CC(C)(C)CC1N=NC2=C1[C@](C)(c1cccc(S(C)(=O)=O)c1)C1=C(CC(C)(C)CC1=O)N2 (some centres undefined) [US20250313563, Compound 114687]",100 to 1000 nM
11,"CC(=O)N1CC2(C1)C1=C(CC(C)(C)CC1=O)NC1N=NC(CC(C)(C)C)=C12 (centres undefined) [US20250313563, Compound 90991]",3010 nM and 17500 nM
12,"CC[C@@]1(c2cccc(Oc3cncnc3)c2)C2=CN=NC2NC2=C1C(=O)CC(C)(C)C2 (some centres undefined) [US20250313563, Compound 945939]",100 to 1000 nM
13,"CC[C@@]1(c2cccc(-c3ccnc(OC)c3)c2)C2=CN=NC2NC2=C1C(=O)CC(C)(C)C2 (some centres undefined) [US20250313563, Compound 911989]",1000 to 5000 nM
14,"CC[C@@]1(c2cccc(-n3ccnc3)c2)C2=CN=NC2NC2=C1C(=O)CC(C)(C)C2 (some centres undefined) [US20250313563, Compound 874533]",100 to 1000 nM
15,"CC[C@@]1(c2cccc(N3C[C@@H](C)[C@@H](C)C3)c2)C2=CN=NC2NC2=C1C(=O)CC(C)(C)C2 (some centres undefined) [US20250313563, Compound 918327]",1000 to 5000 nM
16,"CC[C@@]1(c2cccc(Br)c2)C2=CN=NC2NC2=C1C(=O)CC(C)(C)C2 (some centres undefined) [US20250313563, Compound 790734]",100 to 1000 nM
17,"CC[C@@]1(c2cccc([C@H]3CCOC(C)(C)C3)c2)C2=CN=NC2NC2=C1C(=O)CC(C)(C)C2 (some centres undefined) [US20250313563, Compound 912090]",100 to 1000 nM
18,"CC[C@]1(c2cccc(-c3ccnn3C(C)C)c2)C2=CN=NC2NC2=C1C(=O)CC(C)(C)C2 (some centres undefined) [US20250313563, Compound 946092]",1000 to 5000 nM
19,"CC[C@]1(c2cccc(-c3ccnc(C(F)(F)F)c3)c2)C2=C(CC(C)(C)CC2=O)NC2N=NC(C)=C21 (some centres undefined) [US20250313563, Compound 913049]",100 to 1000 nM

row,Compound,IC50
1,"CC[C@@]1(c2cccc(N(C)c3cccnn3)c2)C2=CN=NC2NC2=C1C(=O)CC(C)(C)C2 (some centres undefined) [US20250313563, Compound 911976]",100 to 1000 nM
2,"CC[C@@]1(c2cccc(C(F)(F)F)c2)C2=CN=NC2NC2=C1C(=O)N[C@H](c1ccccc1)C2 (some centres undefined) [US20250313563, Compound 945363]",1000 to 5000 nM
3,"CC[C@]1(c2cccc(-c3ccnc(C)c3)c2)C2=C(CC(C)(C)CC2=O)NC2N=NC(C)=C21 (some centres undefined) [US20250313563, Compound 913051]",100 to 1000 nM
4,"CC[C@]1(c2cccc([C@H]3CCOC(C)(C)C3)c2)C2=CN=NC2NC2=C1C(=O)CC(C)(C)C2 (some centres undefined) [US20250313563, Compound 912088]",100 to 1000 nM
5,"CCc1cccc([C@]2(CC)C3=CN=NC3NC3=C2C(=O)CC(C)(C)C3)c1 (some centres undefined) [US20250313563, Compound 949391]",1000 to 5000 nM
6,"CCn1nccc1-c1cccc([C@@]2(CC)C3=CN=NC3NC3=C2C(=O)CC(C)(C)C3)c1 (some centres undefined) [US20250313563, Compound 946090]",100 to 1000 nM
7,"CC[C@]1(c2cccc(Oc3ncccn3)c2)C2=CN=NC2NC2=C1C(=O)CC(C)(C)C2 (some centres undefined) [US20250313563, Compound 947818]",100 to 1000 nM
8,"CC[C@@]1(c2cccc(Cl)c2)C2=C(CC(C)(C)CC2=O)NC2N=NC(C(F)(F)F)=C21 (some centres undefined) [US20250313563, Compound 801309]",1000 to 5000 nM
9,"CC[C@@]1(c2cccc(-c3cnn(C)c3)c2)C2=CN=NC2NC2=C1C(=O)CC(C)(C)[C@H]2F (some centres undefined) [US20250313563, Compound 957510]",1000 to 5000 nM
10,"CC[C@@]1(c2cccc(N3CCCC3)c2)C2=C(CC(C)(C)CC2=O)NC2N=NC(C(F)(F)F)=C21 (some centres undefined) [US20250313563, Compound 819575]",100 to 1000 nM
11,"CC[C@@]1(c2cccc(Nc3ncccn3)c2)C2=CN=NC2NC2=C1C(=O)CC(C)(C)C2 (some centres undefined) [US20250313563, Compound 945958]",1000 to 5000 nM
12,"CC[C@]1(c2cccc(-c3cn(C)nc3C)c2)C2=CN=NC2NC2=C1C(=O)N(C)C(C)(C)C2 (some centres undefined) [US20250313563, Compound 949008]",1000 to 5000 nM
13,"CC[C@@]1(c2cccc(C(F)(F)F)c2)C2=CN=NC2NC2=C1C(=O)C[C@@]1(CCNC1=O)C2 (some centres undefined) [US20250313563, Compound 950331]",100 to 1000 nM
14,"CC[C@]1(c2cccc(C(F)(F)F)c2)C2=CN=NC2NC2=C1C(=O)C[C@]1(CCN(C)C1=O)C2 (some centres undefined) [US20250313563, Compound 950330]",100 to 1000 nM
15,"CC[C@@]1(c2cccc(C(F)(F)C(F)(F)F)c2)C2=CN=NC2NC2=C1C(=O)CC(C)(C)C2 (some centres undefined) [US20250313563, Compound 949268]",1000 to 5000 nM
16,"CC[C@]1(c2cccc(-c3ccnc(C)c3)c2)C2=CN=NC2NC2=C1C(=O)CC(C)(C)[C@@H]2F (some centres undefined) [US20250313563, Compound 946101]",1000 to 5000 nM
17,"CC[C@@]1(c2cccc(-c3ccnc(C)c3)c2)C2=C(CC(C)(C)NC2=O)NC2N=NC(C(F)F)=C21 (some centres undefined) [US20250313563, Compound 950163]",< 100 nM and 100 to 1000 nM
18,"CC[C@@]1(c2cccc(-c3ccnc(C)c3)c2)C2=CN=NC2NC2=C1C(=O)CC(C)(C)[C@@H]2F (some centres undefined) [US20250313563, Compound 946102]",1000 to 5000 nM
19,"CC[C@@]1(c2cccc(N(C)c3cccnc3)c2)C2=CN=NC2NC2=C1C(=O)CC(C)(C)C2 (some centres undefined) [US20250313563, Compound 874299]",100 to 1000 nM

# Target: Glycogen synthase kinase-3 beta (Homo sapiens, UniProt P49841)
# Sequence (P49841 whole entry): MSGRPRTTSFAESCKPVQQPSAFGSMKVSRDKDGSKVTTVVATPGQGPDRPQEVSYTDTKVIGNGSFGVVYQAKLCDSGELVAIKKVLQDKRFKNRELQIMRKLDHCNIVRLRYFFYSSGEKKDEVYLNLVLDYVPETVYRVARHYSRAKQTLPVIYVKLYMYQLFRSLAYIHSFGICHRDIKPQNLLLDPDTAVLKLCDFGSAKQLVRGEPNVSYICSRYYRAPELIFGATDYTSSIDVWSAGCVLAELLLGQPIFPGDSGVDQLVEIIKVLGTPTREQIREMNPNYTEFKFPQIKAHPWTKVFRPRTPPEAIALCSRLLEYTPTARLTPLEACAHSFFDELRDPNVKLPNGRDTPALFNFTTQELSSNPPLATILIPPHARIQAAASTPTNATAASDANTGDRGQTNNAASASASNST
# Assay: TR-FRET Assay
# Procedure: as §1
row,IC50 [nM],Compound
1,< 100,"CCC1(c2cccc(-c3ccncc3)c2)C2=CN=NC2NC2=C1C(=O)CC(C)(C)C2 (centres undefined) [US20250313563, Compound 883984]"
2,100 to 1000,"CC[C@@]1(c2cccc(-c3cnn(C)c3)c2)C2=C(CC(C)(C)NC2=O)NC2N=NC(F)=C21 (some centres undefined) [US20250313563, Compound 949011]"

# Reference: BindingDB's records for patent US20250313563 (The Broad Institute, 2025)
